Here are results for 17 molecules from US20250109118A1, “HETEROCYCLIC COMPOUNDS AS SHP2 INHIBITORS, COMPOSITIONS COMPRISING THE HETEROCYCLIC COMPOUND, AND METHODS OF USE THEREOF” (JS INNOMED HOLDINGS LTD., priority 2021, published 2025).

Usually pIC50 stands for the IC50 on a negative log10 scale, so that one unit is a factor of ten.

pIC50: −log10 of the molar value.

This test relates to MiaPaCa-2 cells. Description: MiaPaCa-2 Cell proliferation assay in 3D culture (CCK8). It is filed as cell-based. As to conditions: Homo sapiens, MIA PaCa-2, 120 h; 3D spheroid culture, 5 days with compound, CCK8 readout. On the procedure:
MiaPaCa-2 Cell proliferation assay in 3D culture. To evaluate cell viability, MiaPaCa-2 cells in logarithmic growth phase were seeded at optimal density and grown in as spheroids. Cells were incubated for 24 hours prior to the addition of different concentrations of the compounds. Cells were cultured with the compounds for 5 days and the cell viability was assessed using CCK8. Briefly, 2500 cells were seeded in round bottom ultra-low attachment 96 well plates (coming) in growth media supplemented with 10% FBS and incubated at 37° C. for 24 hours. The compounds were dissolved in DMSO (Sigma) to obtain 10 mM stock solution. Then the compounds were serially diluted in 3-fold to ten concentrations; 5 μL of the dilution above was transferred to 95 uL culture media to obtain the 50× compound stock solution; 4 uL of the 50× compound above was then transferred to the wells containing cells with 196 μL of the culture medium to obtain the final 1× concentration. The final concentration of DMSO was 0.1%. Spheroid cells were incubated in compounds for 5 days. Then 20 μL WST-8 solution (DOJINDO, Cell Counting KIT-8) was added to each well. The plates were further incubated at 37° C. for 1.5 hours, and then absorbance at 450 nm was measured using a microplate reader. Each compound was tested in triplicate and the IC50 value was calculated using GraphPad Prism.
The IC50 values of for Compounds disclosed are listed in Table 2, A: ≤500 nM; B: >500 nM and ≤5 μM; C: >5 μM and ≤50 μM; and D: >50 μM.
On to `C[C@@H]1OCC2(CCN(c3cnc(Sc4cccc(NC(=O)NS(=O)(=O)N5CCCC5)c4Cl)cn3)CC2)[C@@H]1N` [Example 13, N-((3-((5-((3S,4S)-4-amino-3-methyl-2-oxa-8-azaspiro[4.5]decan-8-yl)pyrazin-2-yl)thio)-2-chlorophenyl)carbamoyl)pyrrolidine-1-sulfonamide], for which the negative logarithm of the IC50 (pIC50) was no less than 6.30. With `C[C@@H]1OCC2(CCN(c3cnc(Sc4cccc(NC(=O)NS(=O)(=O)C5CCC5)c4Cl)cn3)CC2)[C@@H]1N` [Example 82, N-((3-((5-((3S,4S)-4-amino-3-methyl-2-oxa-8-azaspiro[4.5]decan-8-yl)pyrazin-2-yl)thio)-2-chlorophenyl)carbamoyl)cyclobutanesulfonamide] the figure was no less than 6.30; with `C[C@@H]1OCC2(CCN(c3cnc(Sc4cccc(NC(=O)NS(=O)(=O)N5CCC(O)C5)c4Cl)cn3)CC2)[C@@H]1N` (stereo partly drawn) [Example 81, N-((3-((5-((3S,4S)-4-amino-3-methyl-2-oxa-8-azaspiro[4.5]decan-8-yl)pyrazin-2-yl)thio)-2-chlorophenyl)carbamoyl)-3-hydroxypyrrolidine-1-sulfonamide], no less than 6.30; with `Cc1noc(C)c1S(=O)(=O)NC(=O)Nc1nccc(Sc2cnc(N3CCC4(CC3)CO[C@@H](C)[C@H]4N)cn2)c1Cl` [Example 76, N-((4-((5-((3S,4S)-4-amino-3-methyl-2-oxa-8-azaspiro[4.5]decan-8-yl)pyrazin-2-yl)thio)-3-chloropyridin-2-yl)carbamoyl)-3,5-dimethylisoxazole-4-sulfonamide], no less than 6.30.

Turning to `C[C@@H]1OCC2(CCN(c3cnc(Sc4ccnc(NC(=O)NS(C)(=O)=O)c4Cl)cn3)CC2)[C@@H]1N` [Example 77, N-((4-((5-((3S,4S)-4-amino-3-methyl-2-oxa-8-azaspiro[4.5]decan-8-yl)pyrazin-2-yl)thio)-3-chloropyridin-2-yl)carbamoyl)methanesulfonamide], the pIC50 was no less than 6.30. `C[C@@H]1OCC2(CCN(c3cnc(Sc4cccc(NC(=O)NS(=O)(=O)C5CCN(C)CC5)c4Cl)cn3)CC2)[C@@H]1N` [Example 70, N-((3-((5-((3S,4S)-4-amino-3-methyl-2-oxa-8-azaspiro[4.5]decan-8-yl)pyrazin-2-yl)thio)-2-chlorophenyl)carbamoyl)-1-methylpiperidine-4-sulfonamide]: the pIC50 is no less than 6.30. The result for `C[C@@H]1OCC2(CCN(c3cnc(Sc4cccc(NS(=O)(=O)NC(=O)N5CCCC5)c4Cl)cn3)CC2)[C@@H]1N` [Example 16, N—(N-(3-((5-((3S,4S)-4-amino-3-methyl-2-oxa-8-azaspiro[4.5]decan-8-yl)pyrazin-2-yl)thio)-2-chlorophenyl)sulfamoyl)pyrrolidine-1-carboxamide] reads no less than 6.30; that for `Cc1nc(N2CCC3(CC2)CO[C@@H](C)[C@H]3N)c(CO)nc1Sc1cccc(NC(=O)NS(=O)(=O)c2ccccc2)c1Cl` [Example 11, N-((3-((5-((3S,4S)-4-amino-3-methyl-2-oxa-8-azaspiro[4.5]decan-8-yl)-6-(hydroxymethyl)-3-methylpyrazin-2-yl)thio)-2-chlorophenyl)carbamoyl)benzenesulfonamide], no less than 6.30; that for `C[C@@H]1OCC2(CCN(c3cnc(Sc4cccc(NC(=O)NS(=O)(=O)c5ccccc5)c4Cl)cn3)CC2)[C@@H]1N` [Example 49, N-((3-((5-((3S,4S)-4-amino-3-methyl-2-oxa-8-azaspiro[4.5]decan-8-yl)pyrazin-2-yl)thio)-2-chlorophenyl)carbamoyl)benzenesulfonamide], no less than 6.30. The result for `C[C@@H]1OCC2(CCN(c3cnc(Sc4cccc(NC(=O)NS(=O)(=O)N5CCC(N)C5)c4Cl)cn3)CC2)[C@@H]1N` (stereo partly drawn) [Example 84, 3-amino-N-((3-((5-((3S,4S)-4-amino-3-methyl-2-oxa-8-azaspiro[4.5]decan-8-yl)pyrazin-2-yl)thio)-2-chlorophenyl)carbamoyl)pyrrolidine-1-sulfonamide] reads no less than 6.30; that for `N[C@@H]1c2ncccc2CC12CCN(c1cnc(Sc3ccnc(NC(=O)NS(=O)(=O)c4ccccc4)c3Cl)cn1)CC2` [Example 14, (S)—N-((4-((5-(7-amino-5,7-dihydrospiro[cyclopenta[b]pyridine-6,4′-piperidin]-1′-yl)pyrazin-2-yl)thio)-3-chloropyridin-2-yl)carbamoyl)benzenesulfonamide], 5.30 to 6.30. The result for `C[C@@H]1OCC2(CCN(c3cnc(Sc4cccc(NC(=O)NS(=O)(=O)C5CC5)c4Cl)cn3)CC2)[C@@H]1N` [Example 66, N-((3-((5-((3S,4S)-4-amino-3-methyl-2-oxa-8-azaspiro[4.5]decan-8-yl)pyrazin-2-yl)thio)-2-chlorophenyl)carbamoyl)cyclopropanesulfonamide] reads no less than 6.30; that for `C[C@@H]1OCC2(CCN(c3cnc(Sc4cccc(NC(=O)NS(=O)(=O)C5CCOC5)c4Cl)cn3)CC2)[C@@H]1N` (stereo partly drawn) [Example 83, N-((3-((5-((3S,4S)-4-amino-3-methyl-2-oxa-8-azaspiro[4.5]decan-8-yl)pyrazin-2-yl)thio)-2-chlorophenyl)carbamoyl)tetrahydrofuran-3-sulfonamide], no less than 6.30; that for `Cc1noc(C)c1S(=O)(=O)NC(=O)Nc1cccc(Sc2cnc(N3CCC4(CC3)CO[C@@H](C)[C@H]4N)cn2)c1Cl` [Example 65, N-((3-((5-((3S,4S)-4-amino-3-methyl-2-oxa-8-azaspiro[4.5]decan-8-yl)pyrazin-2-yl)thio)-2-chlorophenyl)carbamoyl)-3,5-dimethylisoxazole-4-sulfonamide], no less than 6.30.

As for `COc1ccc(S(=O)(=O)NC(=O)Nc2cccc(Sc3cnc(N4CCC5(CC4)CO[C@@H](C)[C@H]5N)cn3)c2Cl)cn1` [Example 64, N-((3-((5-((3S,4S)-4-amino-3-methyl-2-oxa-8-azaspiro[4.5]decan-8-yl)pyrazin-2-yl)thio)-2-chlorophenyl)carbamoyl)-6-methoxypyridine-3-sulfonamide], the pIC50 was no less than 6.30. Take `C[C@@H]1OCC2(CCN(c3cnc(Sc4cccc(NC(=O)NS(=O)(=O)N5CCOCC5)c4Cl)cn3)CC2)[C@@H]1N` [Example 74, N-((3-((5-((3S,4S)-4-amino-3-methyl-2-oxa-8-azaspiro[4.5]decan-8-yl)pyrazin-2-yl)thio)-2-chlorophenyl)carbamoyl)morpholine-4-sulfonamide]: the pIC50 is no less than 6.30.

For `C[C@@H]1OCC2(CCN(c3cnc(Sc4cccc(S(=O)(=O)NC(=O)NC5CCCC5)c4Cl)cn3)CC2)[C@@H]1N` [Example 17, 3-((5-((3S,4S)-4-amino-3-methyl-2-oxa-8-azaspiro[4.5]decan-8-yl)pyrazin-2-yl)thio)-2-chloro-N-(cyclopentylcarbamoyl)benzenesulfonamide], the pIC50 is no less than 6.30.
